Laboratory results taken from PMC4552634, “A New Set of Chemical Starting Points with Plasmodium falciparum Transmission-Blocking Potential for Antimalarial Drug Discovery” (PLoS ONE, 2015).
Where “and” joins values, the source holds several entries; their conditions need not be identical. Equal entries are not always repeated. Where two headings read alike, the source gives them in different places.

Key:
[1] = system: P. falciparum stage V gametocytes; assay: Gametocytocidal ATP bioluminescence assay (single point 5 μM and 1 μM, dose-response); format: cell-based, Plasmodium falciparum; details: for Ratio IC50 HepG2/IC50 P. falciparum: IC50 HepG2 divided by IC50 P. falciparum gametocytes
Method: Purified stage IV-V gametocytes were obtained as previously described [10]. Single point ATP bioluminescence assay and dose–response of positive hits was determined in accordance with the previously published protocol [10].

[2] = system: HepG2 cells; assay: Cytotoxicity in HepG2 cells (intracellular ATP, ATPlite, 48 h); format: cell-based, human; details: HepG2 cells; IC50 per ratio column head; unit inferred
[3] = system: P. falciparum asexual stages; details: asexual stages; TCAMS data; read-out: IC50 asexual; cited from earlier work
[4] = P. falciparum gametocytes, average, read-out: IC50 Pf Gametocytes average, IC50 (µM) average
[5] = sexual stages (gametocytes), dose-response, read-out: IC50 sexual

| SMILES | Ratio IC50 HepG2/IC50 P. falciparum [1] | IC50 [1, 4] | IC50 [1, 5] [µM] | IC50 [2] | IC50 [3] [nM] |
| --- | --- | --- | --- | --- | --- |
| c1ccc2c(CNCCCN3CCN(CCCNCc4c5ccccc5cc5ccccc45)CC3)c3ccccc3cc2c1 [TCMDC-137909] | 60 | 0.11 µM | 0.105 | 6280 nM | 182 |
| Nc1c(Cl)cc(C(O)CNCCCCCOCCCc2ccc(O)c3ncccc23)cc1Cl.O=C(O)/C=C/C(=O)O (centres unmarked) [TCMDC-132088] | 10 | 0.45 µM | 0.455 | 4510 nM | 992 |
| CN(C)CCNCc1ccc(-c2ccc3c(Nc4ccc(Oc5ccccc5)cc4)ccnc3c2)o1 [TCMDC-138399] | 23 | 0.33 µM | 0.325 | 7570 nM | 280 |
| CC(C)CCNCc1ccc(OCc2cccc(COc3ccc(CNCCC(C)C)cc3I)c2)c(I)c1 [TCMDC-137274] | 14 | 0.37 µM |  | 5300 nM | 453 |
| CCc1cc(COc2ccc(CNCCC(C)C)cc2I)c(OCc2ccccc2)c(COc2ccc(CNCCC(C)C)cc2I)c1 [TCMDC-137255] | 5.71 | 1.02 µM | 1.01 | 5800 nM | 1110 |
| Oc1c(CN2CCC(Cc3ccccc3)CC2)cc(Cl)c2cccnc12 [TCMDC-124594] | 16 | 0.6 µM |  | 9600 nM | 881 |
| CCN(Cc1ccc(-c2ccc(C(F)(F)F)cc2)cc1)C(=O)Cn1c(SCc2cccc(F)c2F)cc(=O)c2cc(CN3CCCCC3)ccc21 [TCMDC-141592] | 1.8 | 2.34 µM | 2.33 | 4200 nM | 801 |
| COc1ccc(CCNC(C)Cc2ccc(C(=O)Nc3ccc(CC(C)NCCc4cccc(Cl)c4)cc3)cc2)cc1 (centres unmarked) [TCMDC-139750] | 4 | 0.62 µM |  | 2400 nM | 248 |
| Clc1ccc(OCCC2CCN(CCCCCCCN3CCC(CCOc4ccc(Cl)c(Cl)c4)CC3)CC2)cc1Cl [TCMDC-138967] | 6 and 5.59 | 0.7 µM and 0.47 µM |  | 4400 nM and 2600 nM | 624 |
| COc1cc2ccccc2cc1CCNCCCCNCCc1cc2ccccc2cc1OC [TCMDC-137944] | 32 | 0.11 µM | 0.105 | 3390 nM | 403 |
| COc1ccc2c(OC)c(CNCCCCCCNCc3ccc4cc(OC)ccc4c3OC)ccc2c1 [TCMDC-137953] | 2 | 1.54 µM |  | 3200 nM | 920 |
| COc1cccc(OC)c1CN1CCC(N(C)CCCCCCCCCN2CCC(OC(=O)Nc3ccccc3-c3ccccc3)CC2)CC1 [TCMDC-134690] | <6 | 0.26 µM | 0.255 | < 1560 nM | 319 |
| CCc1c(CCNCCc2cccc(CCNCCc3ccc(OC)c(OC)c3CC)c2)ccc(OC)c1OC [TCMDC-132056] | 7.47 | 0.55 µM |  | 4110 nM | 361 |
| CN(C)CCN(C)Cc1cccc(-c2ccc3c(Nc4ccc(F)cc4Cl)ccnc3c2)c1 [TCMDC-138416] | 7.5 | 0.48 µM |  | 3600 nM | 110 |
| C#CCCOc1ccc2ccccc2c1CNCCCCCCNCc1c(OCCC#C)ccc2ccccc12 [TCMDC-137832] | 14 | 0.41 µM | 0.405 | 5500 nM | 811 |
| CCCCCCN=C(N)c1ccc(OCCCCCOc2ccc(C(N)=NCCCCCC)cc2)cc1 [TCMDC-137619] | 17 | 0.31 µM | 0.309 | 5390 nM | 309 |
| COc1ccccc1CCNc1nc(C)cc(N[C@@H](Cc2ccccc2)C(=O)NCc2cccc(F)c2)n1 [TCMDC-134893] | 1.19 | 5.3 µM |  | 6300 nM | 867 |
| COc1ccc2ccccc2c1CNCCCCCCNCc1c(OC)ccc2ccccc12 [TCMDC-137915] | 14 | 0.25 µM | 0.253 | 3590 nM | 712 |
| CC(C)CNCc1ccc(-c2cccc(CN(C(=O)NC3CCCCC3)C3CCN(Cc4ccccc4)CC3)c2)cc1 [TCMDC-140628] | 1.09 | 1.66 µM |  | 1810 nM | 805 |
| C[C@H](Cc1ccc(CCc2ccc(C[C@@H](C)NC[C@H](O)c3cccc(Cl)c3)cc2)cc1)NC[C@H](O)c1cccc(Cl)c1 [TCMDC-131551] | 12 | 0.27 µM | 0.267 | 3100 nM | 935 |
| CC(C)COc1ccc2ccccc2c1CNCCCCCCNCc1c(OCC(C)C)ccc2ccccc12 [TCMDC-137972] | 18 | 0.1 µM | 0.103 | 1880 nM | 695 |

| SMILES | Ratio IC50 HepG2/IC50 P. falciparum [1] | IC50 [1, 4] | IC50 [1, 5] [µM] | IC50 [2] | IC50 [3] [nM] |
| --- | --- | --- | --- | --- | --- |
| CC(C)CNCc1cccc(-c2cccc(CN(CCCN3CCN(C)CC3)C(=O)/C=C/c3ccccc3)c2)c1 [TCMDC-140541] | 13 | 0.56 µM | 0.557 | 7470 nM | 926 |
| FC(F)(F)COc1ccc(CCNCCCCNCCc2ccc(OCC(F)(F)F)c3ccccc23)c2ccccc12 [TCMDC-137282] | 112 | 0.0267 µM | 0.027 | 3000 nM | 648 |
| CN1CCN(c2nsc3ccc(-c4ccc(NC(=O)Nc5cc(C(F)(F)F)ccc5F)cc4)cc23)CC1 [TCMDC-133435] | 0.851 | 7.52 µM |  | 6400 nM | 245 |
| COc1ccc(CCNCCCCCCNCCc2ccc(Cl)c3ccccc23)cc1OC [TCMDC-131270] | 25 | 0.13 µM | 0.127 | 3230 nM | 580 |
| CC(Cc1ccc(OCCCCOc2ccccc2)cc1)NCCC1CCCN1C (centres unmarked) [TCMDC-140017] | <16 | 0.095 µM |  | < 1560 nM | 40 |
| COc1c(C2CCN(CCN3CCC(CNC(=O)c4ccc(-c5ccc(C#N)cc5)cc4)CC3)CC2)ccc2c1CCCC2 [TCMDC-138859] | 2.83 | 1.17 µM | 1.17 | 3300 nM | 455 |
| CCN(CC)CCOc1ccc(C(O)(C#CC(O)(c2ccc(OCCN(CC)CC)cc2)c2ccc([N+](=O)[O-])cc2)c2ccc([N+](=O)[O-])cc2)cc1 (centres unmarked) [TCMDC-137201] | 28 | 0.22 µM | 0.224 | 6200 nM | 1730 |
| CCC(CSC1CCCCC1)N(C)CCN(C)C(CC)CSC1CCCCC1 (centres unmarked) [TCMDC-131456] | 0.621 | 1.4 µM |  | 870 nM | 314 |
| CCOc1ccccc1CCNC(C)Cc1ccc(C(=O)Nc2ccc(CC(C)NCCc3cccc(Cl)c3)cc2)cc1 (centres unmarked) [TCMDC-139805] | 5.71 | 0.61 µM | 0.613 | 3500 nM | 539 |
| CCNCc1cccc(-c2ccc3ccnc(N)c3c2)c1 [TCMDC-136869] | 7.56 | 1.66 µM |  | 12500 nM | 47 |
| CCCCCCCN1CC[C@@H](CCCc2ccnc3ccc(OCC4CCCNC4)cc23)[C@@H](CC)C1 (some centres unmarked) [TCMDC-139816] | 14 | 0.3 µM |  | 4180 nM | 625 |
| COc1ccc2c(c1CCNCCCCNCCc1c(OC)ccc3c1CCCC3)CCCC2 [TCMDC-137324] | 5 | 0.15 µM |  | 750 nM | 376 |
| CCN(CC)CCOc1ccc(C(O)(C#CC(O)(c2ccc(C)cc2)c2ccc(OCCN(CC)CC)cc2)c2ccc(C)cc2)cc1 (centres unmarked) [TCMDC-137198] | 12 | 0.14 µM |  | 1620 nM | 903 |
| CCN=C1NC2=C(CC(C(C)(C)C)CC2)C2(CCC(C(C)(C)C)CC2)S1 (centres unmarked) [TCMDC-131288] | 5 | 3 µM |  | 14300 nM | 834 |
| CCc1c(CCNCCCC(C)CCNCCc2ccc(OC)c(OC)c2CC)ccc(OC)c1OC (centres unmarked) [TCMDC-132065] | 13 | 0.45 µM | 0.453 | 6000 nM | 1110 |
| COc1cc2ccccc2c(OC)c1CNCCCCCCNCc1c(OC)cc2ccccc2c1OC [TCMDC-137843] | 13 | 0.32 µM | 0.319 | 4250 nM | 988 |
| CN1CCN(CCCN(Cc2cccc(-c3cccc(CNC4CCCC4)c3)c2)C(=O)/C=C/c2ccccc2)CC1 [TCMDC-140543] | 9 | 0.8 µM | 0.805 | 7170 nM | 777 |
| CCc1c(CCNCCCCCCNCCc2ccc(Br)cc2)ccc(OC)c1OC [TCMDC-132045] | 15 | 0.22 µM | 0.215 | 3200 nM | 232 |
| CC1(C)CC(NCCCCCCCOc2ccc(OCc3ccccc3)cc2)CC(C)(C)N1 [TCMDC-138958] | 4.41 | 0.68 µM |  | 3000 nM | 827 |
| Cc1nc(-c2cccc(Nc3ccnc4cc(-c5nccs5)ccc34)c2)no1 [TCMDC-138334] | 25 | 0.3 µM |  | 7620 nM | 322 |
| CCCCCCCN1CC[C@@H](CCCc2ccnc3ccc(OCCC4CCNCC4)cc23)[C@@H](CC)C1 [TCMDC-139819] | 11 | 0.42 µM | 0.415 | 4500 nM | 610 |
